Pharmakologisch aktiv data for 1 molecule are collected here from patent publication EP0019739A1, “2-Aminoalkyl-5-pyridinoles, process for their preparation and pharmaceutical preparations containing them” (CIBA-GEIGY AG, priority 1979, dated 1980).

A short description of the experiment: Pharmacological activity, test not specified. The conditions noted are these: compared with the racemic dihydrochloride (starting material of Example 2) and the levorotatory salt.

Turning to `CC(C)NC(C)Cc1ccc(O)cn1.Cl.Cl` (stereo not shown) [rechtsdrehende Antipode, 2-(2-Isopropylaminopropyl)-5-pyridinol-dihydrochlorid], the pharmakologisch aktiv entry is “weniger aktiv”.
